Laboratory results from PMC7466040, “Sevanol and Its Analogues: Chemical Synthesis, Biological Effects and Molecular Docking” (Pharmaceuticals, 2020).

Key:
rat ASIC3 = target: T1, rat ASIC3 (Rattus norvegicus, UniProt O35240); assay: Two-electrode voltage clamp on X. laevis oocytes expressing rat ASIC3; type: cell-based
T1 construct: expressed in transfected cells; host or cells: Xenopus laevis oocytes (cRNA injection)
T1 sequence (O35240 1-533): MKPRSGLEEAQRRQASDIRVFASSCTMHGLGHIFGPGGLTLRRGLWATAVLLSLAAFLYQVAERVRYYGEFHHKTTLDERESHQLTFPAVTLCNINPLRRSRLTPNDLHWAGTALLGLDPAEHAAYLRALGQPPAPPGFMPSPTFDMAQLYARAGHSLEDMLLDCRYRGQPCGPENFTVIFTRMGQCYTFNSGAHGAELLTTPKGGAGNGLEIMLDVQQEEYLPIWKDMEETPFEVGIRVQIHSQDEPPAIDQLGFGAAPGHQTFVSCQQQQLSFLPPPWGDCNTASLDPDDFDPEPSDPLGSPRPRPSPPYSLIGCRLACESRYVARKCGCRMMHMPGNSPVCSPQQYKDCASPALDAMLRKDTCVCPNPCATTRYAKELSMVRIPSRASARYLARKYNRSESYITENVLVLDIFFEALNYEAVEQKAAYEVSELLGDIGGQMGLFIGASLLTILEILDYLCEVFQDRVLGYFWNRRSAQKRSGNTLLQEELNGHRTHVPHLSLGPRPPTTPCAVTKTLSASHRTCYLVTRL
Procedure: Testing the activity of synthetic sevanol (s706) (as a mixture of 75% of sevanol and 25% of isosevanol) and its analogues (s590, EA, and s788) was carried out by the standard two-electrode voltage clamp method on X. laevis oocytes expressing rat ASIC1a and ASIC3 channels. The activation of the channels was performed using a rapid change of the solution from conditioning pH 7.4 to a solution with pH 5.5. Sevanol and its two analogues, s590 and EA, inhibited ASIC1a and ASIC3 channels.
Oocytes were harvested from female frogs anaesthetized with tricaine methane sulfonate (MS222) (0.17% solution), and the surgery was performed in an ice bath to avoid heavy bleeding. Defolliculated stage IV and V cells were injected with 2.5 and 10 ng cRNA, synthesized from PCi plasmids containing the rat ASIC1a and rat ASIC3 isoforms, respectively, using the Nanoliter 2000 microinjection system (World Precision Instruments, USA). The injected oocytes were kept for 2–3 days at 17 to 19 °C, and then for up to 5 days at 15 °C in a ND96 medium containing (in mM) 96 NaCl, 2 KCl, 1.8 CaCl2, 1 MgCl2, and 5 HEPES titrated to pH 7.4 with NaOH supplemented with gentamycin (50 μg/mL). Two-electrode voltage clamp recordings were performed at a holding potential of −50 mV using a GeneClamp 500 amplifier (Axon Instruments), and the data were filtered at 20 Hz and digitized at 100 Hz by an AD converter L780 (LCard, Russia). Microelectrodes were filled with 3 M KCl. The conditioning bath solution was ND96; the pH was adjusted to 7.4. The activating test solution was constructed based on the ND-96 buffer, in which 5 mM HEPES was replaced with 10 mM MES and pH was adjusted to 5.5. A computer-controlled valve system was used to achieve a rapid solution exchange in the recording chamber. A four parameter logistic equation was used for the curve-fitting analysis: F(x) = ((a1 − a2)/(1 + (x/x0)n)) + a2, where x is the concentration of the compound; F(x) is the response value at a given concentration of the compound; a1 is the control response value (fixed at 100%); x0 is the IC50 value; n is the Hill coefficient (slope factor); and a2 is the response value at the maximal inhibition (% of control).
Figure 2 The inhibitory activity of sevanol (s706) and its analogues. Currents were elicited by a drop from pH 7.4 to 5.5; the holding potential was −50 mV; (A,C) are dose–response curves for s706, s590 and EA inhibitory effects on ASIC1a and ASIC3 channels, respectively; (B,D) are reciprocal IC50 values for s706, s590 and EA inhibitory effects on ASIC1a and ASIC3 channels, respectively. The data were fitted by the logistic equation. Each point is the mean ± SEM of 5–6 measurements. * p < 0.05, ** p < 0.005.

ICR male mice [1] = assay: Abdominal constriction test of visceral pain (acetic acid-induced writhing); type: in vivo
Procedure: Specific pathogen-free outbred ICR male mice (6 to 8 weeks old, weighing 29 to 33 g) were obtained from the Animal Breeding Facility of the Branch of the Shemyakin-Ovchinnikov Institute of Bioorganic Chemistry of the Russian Academy of Sciences (Pushchino). The animals were acclimatized for 2 weeks before the experimental procedures, and were kept in two-corridor barrier rooms under a controlled environment: a temperature of 20 to 24 °C, a relative humidity of 30% to 60%, and a 12 h light cycle. The animals were housed in Type 3 standard polycarbonate cages (820 cm2) on bedding (LIGNOCEL BK 8/15, JRS, Germany), with ad libitum access to feed (SSNIFF V1534-300, Spezialdiaeten, GmbH) and filtered tap water. The mouse cages were also supplied with material for environmental enrichment, i.e., Mouse House (Techniplast, Italy). Sevanol or the vehicle was administered intravenously, intranasally and orally (30 min before testing).
The mice were divided into separate groups, and sevanol or saline was administrated (30 min before testing) as described above. Acetic acid in saline (0.6%, 10 mL/kg) was injected intraperitoneally. The mice were moved into transparent glass cylinders, and the number of writhes was registered for 15 min.
Figure 5 The analgesic and anti-inflammatory effects of sevanol following intravenous, intranasal and per os administration. The effect of sevanol on the acetic acid induced writhing (A–C) and on the mice withdrawal latency on a hot plate in the thermal hyperalgesia test after CFA injection (D–F) upon intravenous (A,D), intranasal (B,E) and oral (C,F) administration. […] The results are presented as the mean ± SD (n = 6–10). The p-values of the sevanol groups vs. the saline group are based on an analysis of variance and on Tukey’s test; * p < 0.05, ** p < 0.005, *** p < 0.001.

ICR male mice [2] = assay: CFA-induced paw oedema; type: in vivo; conditions: p.o. only, not i.v. or i.n., 2, 4, 8 and 24 h
human ASIC3 channels = conditions: natural sevanol; read-out: IC50, inhibition of human ASIC3 channels; cited from earlier work
mice [3] = system: mice; set-up: method as in PMID 30545037; conditions: parenteral, 0.01–10 mg/kg; cited from earlier work
mice [4] = system: mice; set-up: method as in PMID 30545037; conditions: parenteral, 0.01–10 mg/kg; cited from earlier work; remark: listed apart in the source

- IC50 (rat ASIC3; X. laevis oocytes, pH drop 7.4 to 5.5, holding potential −50 mV, mean ± SEM of 5–6, read-out: IC50, inhibition of ASIC3 current): 175 ± 18 µM
- maximal current block, ASIC3 (rat ASIC3; pH 7.4 to 5.5, effect reversible): 100%
- effectiveness in inhibiting ASIC3 relative to ASIC1a (rat ASIC3; ratio of ASIC1a and ASIC3 inhibition): 1.3 times
SMILES: O=C(O)CC(C(=O)O)C(OC(=O)C1=Cc2cc(O)c(O)cc2C(c2ccc(O)c(O)c2)C1C(=O)OC(C(=O)O)C(CC(=O)O)C(=O)O)C(=O)O (centres unmarked) [sevanol]
- reduction of the number of writhes, i.n. (ICR male mice [1]; intranasal, 1 mg/kg): more than 50%
- dose producing statistically significant reduction of writhes, i.n. (ICR male mice [1]; intranasal, 30 min before acetic acid): higher than 0.1 mg/kg
- reduction of the number of writhes, i.v. (ICR male mice [1]; intravenous, 1 mg/kg): more than 50%
- dose producing statistically significant reduction of writhes, i.v. (ICR male mice [1]; intravenous, 30 min before acetic acid): higher than 0.1 mg/kg
- reduction of the number of writhes, p.o. (ICR male mice [1]; oral, 1 mg/kg): more than 50%
- dose from which effective in reducing writhes, p.o. (ICR male mice [1]; oral, 30 min before acetic acid): ≥ 0.01 mg/kg
- enhancement of analgesic and anti-inflammatory effect by oral administration versus other routes (ICR male mice [1]; p.o. vs i.v./i.n., both tests): 10 fold
- paw oedema reduction (ICR male mice [2]): significant reduction in paw oedema
- IC50 (human ASIC3 channels): 300 µM
- effect on CFA-induced thermal hyperalgesia (mice [3]): significantly reversed
- effect on acetic acid-induced writhing (mice [4]): reduced the number of writhes
